Experimental findings from publication PMC11536976 (RSC Advances, 2024) are described below.

Like-named read-outs stand apart in the source and are kept apart here.

Holding throughout (format): cell-based, human
One data set has as its system SW480 cells. As to the kind of experiment: MTT cytotoxicity assay, SW480. As to conditions: for IC50: Homo sapiens, SW480, 72 h, read-out: IC50 SW480; for SI SW480: selectivity index = IC50 in MRC-5 / IC50 in SW480. On the technique in general: Tetrazolium assays rely on reduction of a dye to a coloured formazan, in cell work by metabolically active cells.
For data set [1], the system named is A549 cells. As to the kind of experiment: MTT cytotoxicity assay, A549. As to conditions: for IC50: read-out: IC50 A549; for SI A549: selectivity index = IC50 in MRC-5 / IC50 in A549.
In data set [2] the test system is A549 cells. The data set can be described thus: Apoptosis assay, Annexin V-FITC/PI flow cytometry. As to conditions: 24 h; for early apoptotic cells (Q3, annexin+/PI-): control 1.8%; for late apoptotic cells (Q2, annexin+/PI+): control 2.4%.
The subject of data set [3] is A549 cells. The data set can be described thus: Cell cycle analysis by flow cytometry. Particulars: 24 h; for cell population in S phase: control 18.89%; for cell population in G0/G1 phase: control 67.87%. (In general: A flow cytometer gives signals particle by particle.)

For orientation: IC50 means the point on the concentration scale where inhibition reaches its midpoint.

Turning to `COc1cc(-c2nc3ccc(C(=O)Nc4cccc([N+](=O)[O-])c4)cc3[nH]2)cc(OC)c1OC` [Compound 5k, N-(3-Nitrophenyl)-2-(3,4,5-trimethoxyphenyl)-1H-benzo[d]imidazole-6-carboxamide], the 50% inhibitory concentration (IC50) came to 16.8 ± 1.41 µM with SW480 cells and 14.4 ± 3.53 µM in the data set on A549 cells [1] (Homo sapiens, A549, 72 h).
The matching figures for `COc1cc(-c2nc3ccc(C(=O)Nc4ccc(Br)cc4)cc3[nH]2)cc(OC)c1OC` [Compound 5j, N-(4-Bromophenyl)-2-(3,4,5-trimethoxyphenyl)-1H-benzo[d]imidazole-6-carboxamide]: 15.2 ± 2.58 µM and 13.1 ± 1.27 µM.
As to `COc1cc([C@@H]2c3cc4c(cc3[C@@H](O[C@@H]3O[C@@H]5CO[C@@H](C)O[C@H]5[C@H](O)[C@H]3O)[C@H]3COC(=O)[C@H]23)OCO4)cc(OC)c1O` [Etoposide, reference compound], the IC50 with SW480 cells was 16.6 ± 2.3 µM; with A549 cells [1] (Homo sapiens, A549, 72 h), 9.44 ± 1.98 µM.
With `COc1cc(-c2nc3ccc(C(=O)NCCc4ccccc4)cc3[nH]2)cc(OC)c1OC` [Compound 5d, N-Phenethyl-2-(3,4,5-trimethoxyphenyl)-1H-benzo[d]imidazole-6-carboxamide], the IC50 turned out to be 18.2 ± 2.69 µM with SW480 cells and 0.66 ± 0.13 µM in the data set with A549 cells [1] (Homo sapiens, A549, 72 h).
As for `N.N.[Cl][Pt][Cl]` [Cisplatin, reference compound], the IC50 in the data set on A549 cells [1] (MTT, 72 h, mean ± SD of 3–4 independent replicates) came to 5.77 ± 1.6 µM.
As to `COc1cc(-c2nc3ccc(C(=O)Nc4ccccc4Cl)cc3[nH]2)cc(OC)c1OC` [Compound 5g, N-(2-Chlorophenyl)-2-(3,4,5-trimethoxyphenyl)-1H-benzo[d]imidazole-6-carboxamide], the half-maximal inhibitory concentration (IC50) came to 49.1 ± 2.84 µM in the data set on SW480 cells and 17.3 ± 3.5 µM in the data set on A549 cells [1] (Homo sapiens, A549, 72 h).
Taken in the same sequence, the figures for `COc1cc(-c2nc3ccc(C(=O)Nc4ccccc4C)cc3[nH]2)cc(OC)c1OC` [Compound 5l, N-(o-Tolyl)-2-(3,4,5-trimethoxyphenyl)-1H-benzo[d]imidazole-6-carboxamide] were 9.31 ± 0.21 µM and 0.92 ± 0.39 µM.
`COc1cc(-c2nc3ccc(C(=O)Nc4ccc(C)cc4)cc3[nH]2)cc(OC)c1OC` [Compound 5m, N-(p-Tolyl)-2-(3,4,5-trimethoxyphenyl)-1H-benzo[d]imidazole-6-carboxamide]: in the data set on SW480 cells, the IC50 was found to be 13 ± 1.2 µM and the “SI SW480” value came to 1.2. Moreover, the IC50 with A549 cells [1] (Homo sapiens, A549, 72 h) is 0.52 ± 0.12 µM. Further, the “SI A549” value in the data set with A549 cells [1] is given as 28.9.
`CCCCNC(=O)c1ccc2nc(-c3cc(OC)c(OC)c(OC)c3)[nH]c2c1` [Compound 5a, N-Butyl-2-(3,4,5-trimethoxyphenyl)-1H-benzo[d]imidazole-6-carboxamide]: the IC50 stood at 46.1 ± 9.23 µM in the data set with SW480 cells and 24.8 ± 5.21 µM in the data set on A549 cells [1] (Homo sapiens, A549, 72 h).
In the case of `COc1cc(-c2nc3ccc(C(=O)Nc4ccccc4F)cc3[nH]2)cc(OC)c1OC` [Compound 5f, N-(2-Fluorophenyl)-2-(3,4,5-trimethoxyphenyl)-1H-benzo[d]imidazole-6-carboxamide], in the data set with SW480 cells, the IC50 came out at 6.38 ± 1.95 µM and the “SI SW480” value turned out to be 1.7. Also, in the data set on A549 cells [1] (Homo sapiens, A549, 72 h), the IC50 turned out to be 0.67 ± 0.15 µM. In addition, in the data set with A549 cells [1], the “SI A549” value is listed as 15.8.
Taken in the same sequence, the figures for `COc1cccc2c1C(=O)c1c(O)c3c(c(O)c1C2=O)C[C@@](O)(C(=O)CO)C[C@@H]3O[C@H]1C[C@H](N)[C@H](O)[C@H](C)O1` [Doxorubicin, reference compound] were 0.59 ± 0.07 µM, 0.7, 0.46 ± 0.02 µM and 0.8.
In the case of `COc1cc(-c2nc3ccc(C(=O)NCC(C)C)cc3[nH]2)cc(OC)c1OC` [Compound 5b, N-Isobutyl-2-(3,4,5-trimethoxyphenyl)-1H-benzo[d]imidazole-6-carboxamide], the IC50 in the data set with SW480 cells turned out to be 18.8 ± 3.25 µM; in the data set with A549 cells [1] (Homo sapiens, A549, 72 h) it was 0.82 ± 0.2 µM.
The matching figures for `COc1cc(-c2nc3ccc(C(=O)Nc4ccc(C)cc4C)cc3[nH]2)cc(OC)c1OC` [Compound 5n, N-(2,4-Dimethylphenyl)-2-(3,4,5-trimethoxyphenyl)-1H-benzo[d]imidazole-6-carboxamide]: 14.8 ± 1.63 µM and 1.38 ± 0.23 µM.
Taken in the same sequence, the figures for `COc1cc(-c2nc3ccc(C(=O)NCc4ccccc4)cc3[nH]2)cc(OC)c1OC` [Compound 5c, N-Benzyl-2-(3,4,5-trimethoxyphenyl)-1H-benzo[d]imidazole-6-carboxamide] were 34.8 ± 5.37 µM and 16.3 ± 5.73 µM.
In the case of `COc1cc(-c2nc3ccc(C(=O)Nc4ccc([N+](=O)[O-])cc4Cl)cc3[nH]2)cc(OC)c1OC` [Compound 5i, N-(2-Chloro-4-nitrophenyl)-2-(3,4,5-trimethoxyphenyl)-1H-benzo[d]imidazole-6-carboxamide], the IC50 in the data set on SW480 cells came to 20.2 ± 7.21 µM; in the data set with A549 cells [1] (Homo sapiens, A549, 72 h) it was 5.78 ± 4.85 µM.
The matching figures for `COc1cc(-c2nc3ccc(C(=O)Nc4cccc(Cl)c4)cc3[nH]2)cc(OC)c1OC` [Compound 5h, N-(3-Chlorophenyl)-2-(3,4,5-trimethoxyphenyl)-1H-benzo[d]imidazole-6-carboxamide]: 52.7 ± 2.96 µM and 27.5 ± 6.78 µM.
For the compound `COc1cc(-c2nc3ccc(C(=O)Nc4ccccc4)cc3[nH]2)cc(OC)c1OC` [Compound 5e, N-Phenyl-2-(3,4,5-trimethoxyphenyl)-1H-benzo[d]imidazole-6-carboxamide], in the data set on SW480 cells, the IC50 turned out to be 5.45 ± 0.67 µM and the “SI SW480” value amounted to 2.1. The IC50 with A549 cells [1] (Homo sapiens, A549, 72 h) was determined as 0.23 ± 0.05 µM. Moreover, the “SI A549” value with A549 cells [1] was found to be 50.2.
On to `COc1ccc(NC(=O)c2ccc3nc(-c4cc(OC)c(OC)c(OC)c4)[nH]c3c2)c(OC)c1` [Compound 5o, N-(2,4-Dimethoxyphenyl)-2-(3,4,5-trimethoxyphenyl)-1H-benzo[d]imidazole-6-carboxamide], for which, in the data set with A549 cells [2] (A549, 0.15 μM), the “total apoptosis rate (Q2 + Q3)” value is 15.2%; the “early apoptotic cells (Q3, annexin+/PI-)” value turned out to be 9.8%; the “late apoptotic cells (Q2, annexin+/PI+)” value was 5.4%. In the data set on A549 cells [2] (A549, 0.30 μM), the “total apoptosis rate (Q2 + Q3)” value is recorded as 74.3%; the “early apoptotic cells (Q3, annexin+/PI-)” value is given as 34.4%; the “late apoptotic cells (Q2, annexin+/PI+)” value is 39.9%. In addition, in the data set with SW480 cells, the IC50 stood at 3.68 ± 0.59 µM and the “SI SW480” value is reported as 32.4. Besides, in the data set on SW480 cells (SW480 cells), the “fold stronger cytotoxic activity than cisplatin” value was determined as 4.1 fold and the “fold stronger cytotoxic activity than etoposide” value worked out at 4.5 fold. In addition, in the data set with A549 cells [3] (A549, 0.15 μM), the “cell population in S phase” value was determined as 43.58% and the “cell population in G0/G1 phase” value was 46.44%. Moreover, the “cell population in G2/M phase” value with A549 cells [3] (A549, 0.30 μM, control 13.24%) was found to be 4.53%. In addition, in the data set with A549 cells [3] (A549, 0.30 μM), the “cell population in S phase” value amounted to 60.31% and the “cell population in G0/G1 phase” value stood at 35.16%. Further, in the data set on A549 cells [1] (A549 cells), the “fold higher cytotoxic activity than cisplatin” value is on record as 38.5 fold, the “fold higher cytotoxic activity than doxorubicin” value is listed as 3.1 fold and the “fold higher cytotoxic activity than etoposide” value was found to be 62.9 fold. Also, the half-inhibitory concentration (IC50) with A549 cells [1] (Homo sapiens, A549, 72 h) turned out to be 0.15 ± 0.01 µM. Besides, the “SI A549” value in the data set on A549 cells [1] is reported as 794.6.
